Assay results reported in paper PMC4842970, “Bioactivity Focus of α-Cyano-4-hydroxycinnamic acid (CHCA) Leads to Effective Multifunctional Aldose Reductase Inhibitors” (Scientific Reports, 2016).
Blank lines part the entries; values can stand above or below the molecule they belong to.

Assays:
[1] = tested on: AR; set-up: method as in PMID 22316239; settings: read-out: IC50 (AR inhibition); cited from earlier work
[2] = tested on: oxidative stress (ROS, MDA, ORAC); assay: ROS generation, MDA and ORAC level in chick embryos; format: in vivo; settings: glucose-treated chick embryos; for ORAC level (anti-oxidative capacity) of embryo: EDD 5
Excerpt: It has been reported that hyperglycemia increased the production of ROS. Blocking the generation of ROS could at least partially prevent the possible damage of hyperglycemia. No doubt, oxidative stress will be induced in glucose treated embryos. This conclusion was confirmed by the determination of ROS and malondialdehyde (MDA) levels, and the anti-oxidation ability in chick embryos on EDD 5. […] However, treatment of 5f decreased both levels of ROS and MDA in a dose-dependent manner.
In addition, the ORAC level is indicative of the anti-oxidative capacity.
ROS generation ratios in the eyes of EDD 5 chick embryos were detected with 5 μmol 2′,7′-dichlorofluorescein-diacetate (DCFH-DA, Sigma-Aldrich). The peroxide content was determined by measuring thiobarbituric-acid-reactive substances (TBARS) with a commercial MDA kit (Nanjing Jiancheng Institute of Biotechnology, Nanjing, China). The procedures for the ORAC assay were modified from the previously described method. The automated ORAC assay was carried out on a decay of the fluorescein signal and determined with an excitation/emission filter pair of 485/527 nm in a GENios Lueifcrase microplate reader (TECAN) at 37 °C. Final results were calculated on the basis of the difference in the area under the fluorescein decay curve between the blank and each sample.

[3] = tested on: ALR2; assay: AR (ALR2) activity in glucose-treated embryos (chicken AR ELISA kit); format: in vivo; settings: glucose-treated chick embryos, EDD 5, edaravone group (0.1 nM)
Description: As expected, treatment of 5f decreased ALR2 activity in a dose-dependent manner. […] However, EDA, which is a clinical radical scavenger, was shown no effect on the inhibition of ALR2.
Embryos on EDD 5 were homogenized with chicken saline and centrifuged (4 °C, 10000 rpm, 10 min). The supernatant was used for measuring AR activity in the sample. A chicken AR ELISA kit (Jianglai Biotechnology, China) were used for detection. The concentration of AR in the samples was then determined by comparing the OD of the samples to the standard curve. The sorbitol contents of the chick embryo were determined by a Sorbitol Colorimetric Assay Kit (BioVision, USA). In the assay, sorbitol is oxidized to fructose with the proportional development of intense color with an absorbance maximum at 560 nm.

[4] = tested on: chick embryo; assay: Chick embryo model of hyperglycemia: mortality, NTD rate, body weight; format: in vivo; settings: glucose 0.4 mmol/egg
Description: In order to evaluate further the potential of 5f as an agent to treat diseases caused by high glucose inside the system, a chick embryo model of treatment with high glucose was set up.
Fertilized leghorn eggs were purchased from the Avian Farm of the South China Agriculture University (Guangzhou, China). Before the injection of glucose (Sigma–Aldrich, MO, USA), the eggs were incubated in a humidified incubator (Grumbach, Germany) at 37 °C with 60% humidity until the embryos reached the desired stage. […] Glucose was dissolved in 200 μL chicken saline and injected on EDD 1. Mortality, abnormality and body weight measurements were made on EDD 5. Embryos were removed from their eggs and weighed. The percent mortality was measured by counting the number of dead versus all embryos. The rate of NTD of the embryos was assessed by the number of NTD versus survival embryos.

[5] = molecular target: T1, human ALR2 (Homo sapiens, UniProt P15121); assay: ALR2 inhibition (in vitro reduction of D,L-glyceraldehyde); format: biochemical; settings: human ALR2, D,L-glyceraldehyde as substrate; read-out: IC50 (ALR2 inhibition)
T1 construct: purchased WAKO Pure Chemical Industries, Ltd. (Japan); host or cells: baculovirus-insect cell expression system
Description: Human ALR2 was purchased from WAKO Pure Chemical Industries, Ltd. (Japan), which was purified from the culture medium of baculovirus-insect cell expression system. […] ALR2 inhibition was determined spectrophotometrically according to the procedure described previously.

[6] = ORACFL radical absorbance capacity assay
Excerpt: With the CHCA scaffold, we hypothesized that 5a–j should have antioxidant activity. Therefore, a radical absorbance capacity assay (ORACFL)[41] was employed to assess their capacities. This method is based on the inhibition of peroxyl-radical-induced oxidation initiated by thermal decomposition of azo-compounds, in this case 2,2′-azo-bis (2-amidinopropane) dihydrochloride (AAPH). Trolox (6-hydroxy-2,5,7,8-tetramethylchroman-2-carboxylic acid) was used as a standard reference. Data is expressed as micromoles of Trolox equivalents (TE) per […] of sample (μmol TE/ml or U/ml).
Antioxidant capacity was determined according to the procedure described previously.

[7] = molecular target: T2, ALR1 (Gallus gallus, UniProt Q5ZK84); assay: ALR1 activity in glucose-treated embryos (chicken ALR1 ELISA kit); format: in vivo; settings: glucose-treated chick embryos, EDD 5, compared with the model group
T2 construct: Embryos on EDD 5 were homogenized with chicken saline and centrifuged; from tissue; host or cells: EDD 5 chick (leghorn) embryo homogenate supernatant
T2 sequence (Q5ZK84 1-327): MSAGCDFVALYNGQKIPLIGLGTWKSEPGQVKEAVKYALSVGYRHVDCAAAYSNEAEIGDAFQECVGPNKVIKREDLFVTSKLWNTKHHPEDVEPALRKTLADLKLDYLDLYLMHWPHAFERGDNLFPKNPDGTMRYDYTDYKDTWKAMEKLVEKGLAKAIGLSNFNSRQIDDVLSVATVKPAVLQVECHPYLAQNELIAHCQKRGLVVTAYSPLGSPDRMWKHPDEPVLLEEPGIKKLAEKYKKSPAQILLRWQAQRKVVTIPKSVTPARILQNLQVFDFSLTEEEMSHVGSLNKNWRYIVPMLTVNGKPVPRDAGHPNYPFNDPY
Description: Embryos on EDD 5 were homogenized with chicken saline and centrifuged (4 °C, 10000 rpm, 10 min). The supernatant was used for measuring ALR1 activity in the sample. A chicken ALR1 ELISA kit (Jianglai Biotechnology, China) were used for detection. The concentration of ALR1 in the samples was then determined by comparing the OD of the samples to the standard curve.

[8] = tested on: HEK293 cells; assay: Cytotoxicity, MTT growth inhibition; format: cell-based, human; settings: 500 μM
Description: In another aspect, the toxicity was evaluated by the growth inhibition of 5f against human embryonic kidney 293 (HEK293) cells. It was shown that 5f was nontoxic to HEK293 cells even at high concentration of 500 μM (Supplementary B of Fig. S2).
HEK293 cells were purchased from Centre of Cells Resource, Shanghai Institute of Life Science, Chinese Academy of Sciences, P. R. China. HEK293 cells in the exponential phase were plated on a 96-well cell culture plate with 5 × 10^3 cells in each well supplemented with 100 U/ml of penicillin and 100 μg/ml of streptomycin, which were cultured in a humidified atmosphere of 95% and 5% CO2 at 37 °C for 24 h. The cells were adherent. […] 6 wells were set for each group. The wells without addition of the drug were set as controls. The cells in each of the wells were cultured for another 24 h. Then 15 μl of MTT (5 mg/mL) was added to each well. The plates were then incubated at 37 °C for 4 hours, then the supernatants were discarded. 150 μL of DMSO solutions were added to each of the wells and the solutions were mixed thoroughly. Then the plates were incubated at 37 °C for another 10 minutes. Each sample was mixed again and the resulting formazan was measured by its absorbance at 570 nm using a BIO-RAD680 plate reader (Thermo, USA). The experiments were repeated at least 3 times and compared with the control experiment. […]

SMILES: O=C(O)/C=C/c1ccc(O)cc1 [p-coumaric acid]
IC50 [1]: 140 nM

SMILES: CC1=NN(c2ccccc2)C(=O)C1 [Edaravone, reference compound]
ORAC level (anti-oxidative capacity) of embryo [2]: recovered
ALR2 activity in embryo [3]: no effect
Body weight ([4]; EDD 5, dose 0.1 nM): 310.8 ± 11.6 mg
Death (/n) ([4]; EDD 5, dose 0.1 nM): 20.0%
NTD (/survival) ([4]; EDD 5, dose 0.1 nM): 18.8%

melting point: 176 to 178 °C
IC50 [5]: 316 ± 6.2 nM
SMILES: CC(=O)N[C@@H](COCc1ccccc1)C(=O)NCCNC(=O)/C(C#N)=C/c1ccc(O)cc1 [Compound 5c, (S,E) – N - (2 - (2-acetamido-3-(benzyloxy)propanamido)ethyl)-2-cyano-3-(4-hydroxyphenyl)acrylamide]
ORAC ([6]; 3.125 μg/ml): 32.4 ± 1.8 U/ml
ORAC ([6]; 6.25 μg/ml): 30.4 ± 1.7 U/ml
ORAC ([6]; 12.5 μg/ml): 26.4 ± 2.9 U/ml

SMILES: CC(/C=C1\SC(=S)N(CC(=O)O)C1=O)=C\c1ccccc1 [Epalrestat, epalrestat, reference compound]
ALR1 level in embryo [7]: no obvious change
ORAC level (anti-oxidative capacity) of embryo [2]: no effect
MDA level in embryo ([2]; EDD 5, dose 1 μM): no effect
ROS level in embryo ([2]; EDD 5, dose 1 μM): no effect
Body weight ([4]; EDD 5, dose 1 μM): 300.1 ± 3.6 mg
Death (/n) ([4]; EDD 5, dose 1 μM): 25.0%
NTD (/survival) ([4]; EDD 5, dose 1 μM): 26.7%
inhibition rate (growth inhibition) [8]: 36.4%
